Measured values: patent US9999626B2, “Mineral amino-acid complexes of active agents” (Thetis Pharmaceuticals LLC, priority 2014, dated 2018)

Key:
[1] = Physical Stability Study (proton NMR after storage exposed to air); type: physicochemical; settings: room temperature
Text: FIG. 1: […] NMR spectrum of magnesium bis-lysinate bis-EPA taken on the day the compound was synthesized (upper trace) and 60 days later (lower trace) with the compound having been exposed to air at room temperature for the entire 60-day period.
Since the compounds of Formula IA and IB, and the compositions comprising same or mixtures of same, described herein are solids (not oils) and they are very stable against oxidative degradation of the fatty acid component, particularly when compared to the free fatty acid or fatty acid ester forms of the fatty acids, which are highly susceptible to oxidative degradation in their liquid forms and consequently tend to degrade when exposed to air or humidity. […] This is evidenced, for example by no significant change in physical properties, such as flow characteristics, or in chemical properties, as measured by NMR spectroscopy, following days of storage in an open vial at room temperature and standard humidity, for example following from about 7 to 14 days or up to 30, up to 60, or up to 90 days of storage.
The compounds of the invention are remarkably stable compared to omega-3 polyunsaturated free fatty acids, which typically show evidence of oxidative degradation with hours of exposure to atmospheric oxygen. […]

[2] = set-up: species or system rats; settings: rat, in vivo, po
Text: The results of a single dose, oral pharmacokinetic study in rats for a compound of Formula III (designated TP-252, Mg-Lys2-EPA2) are shown in Table 3 below. One of the parameters shown in […] is the area under the curve (AUC), which is the integral of a plot of concentration of drug in blood plasma against time. The AUC is proportional to the total amount of the active pharmaceutical agent (API) that reaches the blood circulation. In this example, the API (or analyte) is EPA. AUC and Cmax are given for the compound of Formula III, EPA free fatty acid (EPA FFA), and EPA ethyl ester (EPA EE). EPA ethyl ester is the FDA-approved form of EPA.

Compound: CC/C=C\C/C=C\C/C=C\C/C=C\C/C=C\CCCC(=O)O.CC/C=C\C/C=C\C/C=C\C/C=C\C/C=C\CCCC(=O)O.NCCCC[C@H](N)C(=O)[O-].NCCCC[C@H](N)C(=O)[O-].[Mg+2] [TP-252, Magnesium Bis-Lysinate Bis-EPA Dihydrate]
- chemically stable (no evidence of oxidation or degradation by proton NMR) [1]: at least 60 days
- EPA delivered to the blood plasma compared with equivalent doses of EPA free fatty acid or EPA ethyl ester [2]: significantly more EPA
